Target: T1, alpha4-beta7 on RPMI 8866 cells binding to MadCAM (Homo sapiens, UniProt P13612+P26010)
T1 construct: endogenous in cells; host or cells: RPMI 8866 cells
T1 sequence (P13612 34-1032): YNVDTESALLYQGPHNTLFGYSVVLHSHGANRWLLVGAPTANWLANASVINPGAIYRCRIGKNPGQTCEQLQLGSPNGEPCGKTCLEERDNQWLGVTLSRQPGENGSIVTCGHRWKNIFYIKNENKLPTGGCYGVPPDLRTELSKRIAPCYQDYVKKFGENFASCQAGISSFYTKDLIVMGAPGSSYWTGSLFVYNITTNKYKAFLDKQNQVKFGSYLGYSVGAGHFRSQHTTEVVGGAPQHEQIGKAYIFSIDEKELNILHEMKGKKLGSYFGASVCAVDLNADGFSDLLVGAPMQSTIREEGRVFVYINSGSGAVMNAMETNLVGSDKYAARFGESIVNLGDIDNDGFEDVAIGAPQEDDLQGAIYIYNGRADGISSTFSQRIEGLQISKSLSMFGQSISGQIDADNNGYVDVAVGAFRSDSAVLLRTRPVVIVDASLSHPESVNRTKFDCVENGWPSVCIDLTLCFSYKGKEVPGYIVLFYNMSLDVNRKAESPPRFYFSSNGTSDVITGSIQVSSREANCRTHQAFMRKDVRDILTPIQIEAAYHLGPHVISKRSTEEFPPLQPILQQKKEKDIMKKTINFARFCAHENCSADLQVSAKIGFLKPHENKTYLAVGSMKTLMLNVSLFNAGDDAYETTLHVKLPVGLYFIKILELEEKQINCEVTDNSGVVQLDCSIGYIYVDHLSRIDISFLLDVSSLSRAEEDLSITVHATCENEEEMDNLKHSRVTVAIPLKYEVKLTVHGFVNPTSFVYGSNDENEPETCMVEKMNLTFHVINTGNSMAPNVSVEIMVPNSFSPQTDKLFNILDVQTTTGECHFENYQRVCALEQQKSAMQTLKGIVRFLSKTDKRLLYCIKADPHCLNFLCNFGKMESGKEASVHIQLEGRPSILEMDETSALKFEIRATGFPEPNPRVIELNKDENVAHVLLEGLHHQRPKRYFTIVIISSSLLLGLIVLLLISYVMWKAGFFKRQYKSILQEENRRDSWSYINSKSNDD
T1 sequence (P26010 20-798): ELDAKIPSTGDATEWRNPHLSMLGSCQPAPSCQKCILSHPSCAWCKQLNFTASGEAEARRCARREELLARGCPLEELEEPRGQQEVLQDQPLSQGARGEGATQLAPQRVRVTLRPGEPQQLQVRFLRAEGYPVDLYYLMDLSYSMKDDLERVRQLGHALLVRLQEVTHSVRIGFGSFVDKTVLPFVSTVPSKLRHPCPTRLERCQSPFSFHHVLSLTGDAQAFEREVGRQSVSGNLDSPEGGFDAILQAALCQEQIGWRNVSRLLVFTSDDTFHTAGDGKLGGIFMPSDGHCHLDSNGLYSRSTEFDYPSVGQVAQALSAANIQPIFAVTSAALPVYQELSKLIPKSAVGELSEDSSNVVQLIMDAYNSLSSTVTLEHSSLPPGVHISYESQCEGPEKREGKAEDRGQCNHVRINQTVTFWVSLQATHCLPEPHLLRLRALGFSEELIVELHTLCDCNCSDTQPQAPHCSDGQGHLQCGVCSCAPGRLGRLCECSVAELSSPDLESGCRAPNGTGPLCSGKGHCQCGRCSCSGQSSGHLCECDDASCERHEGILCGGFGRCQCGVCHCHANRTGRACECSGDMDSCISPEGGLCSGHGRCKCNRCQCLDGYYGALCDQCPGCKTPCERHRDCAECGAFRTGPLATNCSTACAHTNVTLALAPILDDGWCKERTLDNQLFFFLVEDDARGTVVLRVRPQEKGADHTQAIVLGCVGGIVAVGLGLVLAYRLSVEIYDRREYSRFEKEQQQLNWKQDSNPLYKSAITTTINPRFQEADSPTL
Assay: Alpha4-Beta7 Assay (MadCAM/RPMI 8866 cell adhesion)
Type: cell-based
Details: calcein labeled RPMI 8866 cells, MadCAM coated plates
Method: Alpha4-Beta7 Assay Protocol
Two weeks to one day prior to the assay, Nunc high-binding F96 Maxisorp immuno plates, #442404 or #439454, were coated with 25 ng/well (0.25 μg/ml) MadCAM in a volume of 100 μl/well. The plates were covered with sealer and wrapped in saran wrap followed by incubation in the refrigerator for at least 24 hours. The coating buffer employed was: 10 mM carbonate/bicarbonate buffer made up from: 0.8 g/L sodium carbonate and 1.55 g/L sodium bicarbonate adjusted to pH 9.6 with 1 N HCl.
Assay buffers consisted of the following: • Wash Buffer: 0.05% Tween 20 in PBS • Blocking Buffer: 1% Nonfat Dry Milk in PBS • Labeling Buffer: PBS • Cell Buffer: RPMI 1640 medium (no additives) • Binding Buffer: 1.5 mM CaCl2 • 0.5 mM MnCl2 • 50 mM TRIS-HCl; add NaOH dropwise to pH 7.5 • Bring to volume in H2O • Adjust to pH 7.5 • Dilution Buffer: 4% DMSO in Binding Buffer
Plates were washed 2× with wash buffer and then blocked at room temperature for at least 1 hour with Blocking Buffer. Sealed plates were sometimes blocked overnight in the refrigerator. Plates were then washed with PBS and hand blotted dry. Remaining liquid was aspirated from the wells.
Sufficient RPMI 8866 cells were removed from stock for assay (2×10^6 cells/ml×10 ml/plate×number of plates) and placed in a centrifuge tube. The tubes were filled to volume with PBS and were spun at 200×G for 8 minutes. The buffer was poured off and the cells were resuspended to 10×10^6/ml in PBS and a stock solution of calcein in DMSO (5 mg/mL) was added at 5 μl/ml of cell suspension. The suspension was incubated for 30 minutes at 37° C. in dark. The cells were then washed with PBS. The PBS was poured off and the cells resuspended in cell buffer at a concentration of 2×10^6 cells/mL for plating in the assay.
Stock solution of test compounds at 25× first dilution desired in 100% DMSO were prepared. First dilutions for the standard, as well as test compounds, were 1:25 into straight Binding Buffer, while the remaining serial dilutions were into Dilution Buffer (Binding Buffer/4% DMSO). Stock concentrations and dilutions of compounds for screening were determined by anticipated activity.
For the assay, 129 μl Binding Buffer was plated into first row of wells and 100 μl Dilution Buffer was plated into remaining wells. A 5.4 μl aliquot of each compound was pipetted into appropriate, labeled wells, in triplicate. The compounds were next diluted down the plate (34 μl+100 μl=>4-fold dilution). For controls, 100 μl of Dilution Buffer+100 μl Cell Buffer were plated into the nonspecific background wells (no cells, no compound) and 100 μl Dilution Buffer+100 μl cells were plated into the total binding wells (no compound=100% binding). Labeled cells at 2×10^6 cells/ml, 100μl/well (=2×10^5 cells/well) were added to each well containing compound. The plates were sealed and incubated in the dark for 45 minutes at room temperature. Following incubation, unbound cells were removed by adding 150 μl PBS/well. The plates were inverted, blotted onto paper towels and washed by gently adding 200 μl PBS to wells and blotting again. Remaining buffer was carefully aspirated from the wells. A final 100 μl PBS was added to each well.
The plates were then read for fluorescence intensity on a Cytofluor 2300 (Millipore) fluorecence measurement system (excitation=485 nm, emission=530 nm). IC50s of each compound were determined by linear regression analysis.

`Cc1cccc(Cl)c1C(=O)N[C@@H](Cc1ccc(-c2cccn(C)c2=O)cc1)C(=O)O` [Example 30, N-[(2-chloro-6-methylphenyl)carbonyl]-4-(1-methyl-2-oxo-3-pyridinyl)-L-phenylalanine] and `Cc1cccc(Cl)c1C(=O)N[C@@H](Cc1ccc(-c2c(C)ccn(C)c2=O)cc1)C(=O)O` [Example 32, N-[(2-chloro-6-methylphenyl)carbonyl]-4-(1,4-dimethyl-2-oxo-3-pyridinyl)-L-phenylalanine] cannot be ordered by IC50: less than 10 µM for the first, less than 10 µM for the second.

`Cc1ccn(C)c(=O)c1-c1ccc(C[C@H](NC(=O)c2c(Cl)cccc2Cl)C(=O)O)cc1` [Example 31, N-[(2,6-dichlorophenyl)carbonyl]-4-(1,4-dimethyl-2-oxo-3-pyridinyl)-L-phenylalanine] and `Cc1cc(C(F)(F)F)c(-c2ccc(C[C@H](NC(=O)c3c(Cl)cccc3Cl)C(=O)O)cc2)c(=O)n1C` [Example 33, N-[(2,6-dichlorophenyl)carbonyl]-4-[1,6-dimethyl-4-(trifluoromethyl)-2-oxo-3-pyridinyl]-L-phenylalanine] cannot be ordered by IC50: less than 10 µM for the first, less than 0.1 µM for the second.

`CCc1cccc(C)c1C(=O)N[C@@H](Cc1ccc(-c2c(C(F)(F)F)cc(C)n(C)c2=O)cc1)C(=O)O` [Example 34, N-[(2-ethyl-6-methylphenyl)carbonyl]-4-[1,6-dimethyl-4-(trifluoromethyl)-2-oxo-3-pyridinyl]-L-phenylalanine] and `Cc1cccc(Cl)c1C(=O)N[C@@H](Cc1ccc(-c2c(C(F)(F)F)cc(C)n(C)c2=O)cc1)C(=O)O` [Example 36, N-[(2-chloro-6-methylphenyl)carbonyl]-4-[1,6-dimethyl-4-(trifluoromethyl)-2-oxo-3-pyridinyl]-L-phenylalanine] cannot be ordered by IC50: less than 10 µM for the first, less than 10 µM for the second.

`Cc1cccc(C(C)C)c1C(=O)N[C@@H](Cc1ccc(-c2c(C(F)(F)F)cc(C)n(C)c2=O)cc1)C(=O)O` [Example 35, N-[(2-(1-methylethyl)-6-methylphenyl)carbonyl]-4-[1,6-dimethyl-4-(trifluoromethyl)-2-oxo-3-pyridinyl]-L-phenylalanine] and `COCCC1(C(=O)N[C@@H](Cc2ccc(-c3c(C(F)(F)F)cc(C)n(C)c3=O)cc2)C(=O)O)CCCC1` [Example 37, N-[[1-(2-methoxyethyl)cyclopentyl]carbonyl]-4-[1,6-dimethyl-4-(trifluoromethyl)-2-oxo-3-pyridinyl]-L-phenylalanine] cannot be ordered by IC50: less than 5 µM for the first, less than 10 µM for the second.

Reference: US6916933B2, “4-pyridinyl-n-acyl-l-phenylalanines” (Hoffman-La Roche Inc., priority 1999, dated 2005)
